Reference: patent US9387206B2, “Therapeutic approaches for treating Alzheimer's disease” (PHARNEXT, priority 2009, dated 2016)

Legend:
Format in all cases: cell-based
[1] = system: rat primary cortical neurons; assay: LDH release, human Aβ1-42 toxicity on rat primary cortical cells
Experimental: Primary rat cortical neurons are cultured as described previously.
Briefly, Aβ1-42 peptide was reconstituted in defined culture medium at 40 μM (mother solution) and was slowly shacked at +37° C. for 3 days in the dark for aggregation. The control medium was prepared in the same conditions.
After 10 days of neuron culture, the drug was solved in culture medium (+0.1% DMSO) and then pre-incubated with neurons for 1 hour before the Aβ1-42 application (in a final volume per culture well of 100 μl). […] Cortical neurons were intoxicated for 24 hours. Three separate cultures were performed per condition, 6 wells per condition.
Estradiol-β at 100 and 150 nM were used as a reference test compound and BDNF at 50 ng/ml was used as a positive control. Three separate cultures were performed per condition, […].
Estradiol-β and BDNF were solved in culture medium and pre-incubated for 1 h before the aggregated amyloid-β1-42 application.
Lactate Dehydrogenase (LDH) Activity Assay
This colorimetric assay for the quantification of cell toxicity is based on the measurement of lactate dehydrogenase (LDH) activity released from the cytosol of dying cells into the supernatant.
All values are expressed as mean±s.e.mean of the 3 cultures (n=6 per condition). Statistical analyses were done on the different conditions (ANOVA followed by the Dunnett's test when it was allowed, Statview software version 5.0).

[2] = system: human brain microvascular endothelial cells (HBMEC); assay: Total length of capillary network in human Aβ1-42 intoxicated HBMEC cultures; conditions: for Effect on Aβ1-42 intoxication, total length of capillary network, drug alone / Prevention of Aβ1-42 intoxication, capillary network, drug alone: Aβ1-42 2.5 μM; for Prevention of Aβ1-42 intoxication, capillary network, drug alone: dose-response experiments, 18 h
Experimental: Human brain microvascular endothelial cell cultures were used to study the protection afforded by candidate compounds on Aβ1-42 toxicity.
Human brain microvascular endothelial cerebral cells (HBMEC, ScienCell Ref: 1000, frozen at passage 10) were rapidly thawed in a water bath at +37° C. […] On matrigel support, endothelial cerebral cells spontaneously started the process of capillary network morphogenesis (47).
Three separate cultures were performed per condition, 6 wells per condition.
The control medium was prepared in the same conditions.
The Aβ1-42 peptide was added 2 hours after HBMEC seeding on matrigel for 18 hours incubation.
Capillary Network Quantification
Per well, 2 pictures with 4× lens were taken using InCell Analyzer™ 1000 (GE Healthcare) in light transmission. All images were taken in the same conditions. Analysis of the angiogenesis networks was done using Developer software (GE Healthcare). The total length of capillary network was assessed.
All values are expressed as mean±s.e.mean of the 3 cultures (n=6 per condition). Statistical analyses were done on the different conditions performing an ANOVA followed by the Dunnett's test when it was allowed (Statview software version 5.0). The values (as %) inserted on the graphs show the amyloid toxicity evolution. Indeed, the amyloid toxicity was taken as the 100% and the test compound effect was calculated as a % of this amyloid toxicity.

[3] = system: rat endothelial cerebral cells; assay: LDH release from rat endothelial cerebral cells, beta-amyloid (Aβ25-35) toxicity; conditions: for Prevention of Aβ25-35 intoxication, LDH release: Aβ25-35 30 μM, 3 days, drug added 1 hour before; for Spontaneous cell death in the culture medium: LDH release, rat endothelial cerebral cells
Experimental: Primo culture of rat endothelial cerebral cells (Vect-Horus SAS, Marseille) is cultivated on passage 0. At confluence, endothelial cells are dissociated with trypsin EDTA (Pan Biotech Ref: P10-023100). Cells are seeded at a density of 25,000 cells/well in 96-well plates (wells are coated with 30 μl of type I rat collagen at 1.5 mg/ml, Vect-Horus SAS, Marseille) and are cultured in MCBD 131 medium (M-131-500, Invitrogen) supplemented with 1% of microvascular growth supplement (MVGS, S-005-25, Invitrogen). Cells are cultured at 37° C. in a humidified air (95%)/CO2(5%) atmosphere. Half of the medium is changed every other day with fresh medium.
After 4 days, drugs are added to the cell culture medium, at different concentrations, solved in DMSO 0.1% or water.
Cells are then intoxicated with 30 μM of β-amyloid (25-35; Sigma) together with drugs in the same culture medium. Cells are then intoxicated for 3 days.
For each culture, after 3 days of intoxication, the supernatant is collected and analyzed with the Cytotoxicity Detection Kit (LDH, Roche Applied Sciences). This colorimetric assay for the quantification of cell death is based on the measurement of lactate dehydrogenase (LDH) activity released from the cytosol of damaged cells into the supernatant. The optic density (DO) is assessed by spectrophotometer at 492 nm wavelength by a multiscan apparatus (Thermo, Ref Ascent).
Results presented in FIG. 3 are extracted from two independent cultures, 6 wells per condition. All values are expressed as mean±s.e.m. A bilateral Student's t test analysis is performed on raw data. Results are expressed in percentage of cell viability, compared to the control (vehicle).
Drugs are incubated with rat primary cerebral endothelial cells for one hour before Aβ25-35 30 μM intoxication that lasts 3 days.
Three days after this incubation, LDH release in the culture medium is quantified, reflecting the level of cell death.

[4] = system: rat primary cortical neurons; assay: LDH release in Aβ25-35 intoxicated rat primary cortical neuron culture; conditions: Aβ25-35 20 μM, 2 days; drug added 1 hour before
Experimental: Primary rat cortical neurons are cultured as described by Singer et al., 1999. Briefly pregnant female rats of 15 days gestation are killed by cervical dislocation (Rats Wistar; Janvier) and the foetuses removed from the uterus. The cortexes are removed and placed in ice-cold medium of Leibovitz (L15; Invitrogen) containing 1% of Penicillin-Streptomycin (PS; Invitrogen) and 1% of bovine serum albumin (BSA; Sigma). Cortexes are dissociated by trypsinisation for 20 min at 37° C. (Trypsin EDTA 1×; Invitrogen) diluted in PBS without calcium and magnesium. The reaction is stopped by the addition of Dulbecco's modified Eagle's medium (DMEM; Invitrogen) containing DNAase I grade II (0.1 mg/ml; Roche Diagnostics) and 10% of foetal calf serum (FCS; Invitrogen). Cells are then mechanically dissociated by 3 passages through a 10 ml pipette. Cells are then centrifuged at 180×g for 10 min at 10° C. […] Viable cells are counted in a Neubauer cytometer using the trypan blue exclusion test. Cells are seeded at a density of 30,00-cells/well in 96-well plates (wells are pre-coated with poly-L-lysine (10 μg/ml; […] After 6 days of culture, cells are incubated with drugs (5 concentrations). After 1 hour, cells are intoxicated by 20 μM of β-amyloid (25-35; Sigma) in defined medium without BDNF but together with drugs. Cortical neurons are intoxicated for 2 days. After 2 days of culture, the supernatant is collected and analyzed with the Cytotoxicity Detection Kit (LDH, Roche Applied Sciences). This colorimetric assay for the quantification of cell death is based on the measurement of lactate dehydrogenase (LDH) activity released from the cytosol of damaged cells into the supernatant. The optic density (DO) is assessed by spectrophotometer at 492 nm wavelength by a multiscan apparatus (Thermo, Ref Ascent). […] Two days after this incubation, LDH release in the culture medium is quantified, reflecting the level of cell death.

[5] = drug pretreatment, concentration not given
[6] = alone at the concentrations used in the combination (FIGS. 8-13)

NCC(CC(=O)O)c1ccc(Cl)cc1 (racemic) [Baclofen]
LDH release, prevention of Aβ1-42 intoxication [1, 5]: −86% | Effect on Aβ1-42 intoxication, total length of capillary network, drug alone [2, 6]: no significant effect | Prevention of Aβ1-42 intoxication, capillary network, drug alone [2]: significantly prevented

NCCCCCC(=O)O [Aminocaproic acid, Aminocaproic Acid]
Effect on Aβ1-42 intoxication, total length of capillary network, drug alone [2, 6]: no significant effect

NCC(CC(=O)O)c1ccc(Cl)cc1 (stereo not drawn) [Baclofen (−), Baclofen]
Prevention of Aβ25-35 intoxication, LDH release [3]: significantly prevented

CCN(CC)C(=O)N1CCN(C)CC1 [Carbamazine]
Effect on Aβ1-42 intoxication, LDH release, drug alone ([1]; 0.32 nM alone, Aβ1-42 2.5 μM): no significant effect | LDH release, prevention of Aβ1-42 intoxication ([1]; 40 nM, Aβ1-42 10 μM): −68% | Protective effect against toxicity of Aβ peptide 1-42, drug alone ([1]; 40 nM, primary cortical neuron cells): strong protective effect

CC1(C)[C@@H](OC(=O)CCC(=O)O)CC[C@]2(C)[C@H]3C(=O)C=C4[C@@H]5C[C@@](C)(C(=O)O)CC[C@]5(C)CC[C@@]4(C)[C@]3(C)CC[C@@H]12 [Carbenoxolone]
LDH release, prevention of Aβ1-42 intoxication [1, 5]: −39%

C(=C\c1ccccc1)/CN1CCN(C(c2ccccc2)c2ccccc2)CC1 [Cinnarizine]
LDH release, prevention of Aβ1-42 intoxication [1, 5]: −50%

CCOC(=O)c1cncn1[C@H](C)c1ccccc1 [Etomidate]
LDH release, prevention of Aβ1-42 intoxication [1, 5]: −50%

Cc1oncc1C(=O)Nc1ccc(C(F)(F)F)cc1 [Leflunomide]
Prevention of Aβ25-35 intoxication, LDH release [3]: significantly prevented | Spontaneous cell death in the culture medium [3]: decrease spontaneous cell death | Prevention of Aβ25-35 intoxication, LDH release [4]: significantly prevented

C[C@@H]1CC(=O)NN=C1c1ccc(NN=C(C#N)C#N)cc1 [Levosimendan]
LDH release, prevention of Aβ1-42 intoxication [1, 5]: −47% | Protective effect against toxicity of Aβ peptide 1-42, drug alone ([2]; 8 nM, HBMEC): strong protective effect | Effect on Aβ1-42 intoxication, total length of capillary network, drug alone [2, 6]: no significant effect | Prevention of Aβ1-42 intoxication, capillary network, drug alone [2]: significantly prevented

Cc1noc(NS(=O)(=O)c2ccc(N)cc2)c1C [Sulfisoxazole]
Prevention of Aβ25-35 intoxication, LDH release [3]: significantly prevented | LDH release, prevention of Aβ1-42 intoxication [1, 5]: −42% | Prevention of Aβ25-35 intoxication, LDH release [4]: significantly prevented | Effect on Aβ1-42 intoxication, total length of capillary network, drug alone ([2]; 1.36 nM alone): no significant effect | Effect on Aβ1-42 intoxication, total length of capillary network, drug alone [2, 6]: no significant effect | Prevention of Aβ1-42 intoxication, capillary network, drug alone [2]: significantly prevented

CN(C/C=C/C#CC(C)(C)C)Cc1cccc2ccccc12 [Terbinafine]
Prevention of Aβ25-35 intoxication, LDH release [3]: significantly prevented | Spontaneous cell death in the culture medium [3]: decrease spontaneous cell death | Effect on Aβ1-42 intoxication, total length of capillary network, drug alone [2, 6]: no significant effect | Prevention of Aβ1-42 intoxication, capillary network, drug alone [2]: significantly prevented

B1: brain-derived neurotrophic factor (protein, UniProt P23560 19-247, looked up)
Neurotrophic factor BDNF …: APMKEANIRGQGGLAYPGVRTHGTLESVNGPKAGSRGLTSLADTFEHVIEELLDEDQKVRPNEENNKDADLYTSRVMLSSQVPLEPPLLFLLEEYKNYLDAANMSMRVRRHSDPARRGELSVCDSISEWVTAADKKTAVDMSGGTVTVLEKVPVSKGQLKQYFYETKCNPMGYTKEGCRGIDKRHWNSQCRTTQSYVRALTMDSKKRIGWRFIRIDTSCVCTLTIKRGR
notes: positive control for neuroprotection at 50 ng/ml
LDH release, protection from amyloid injury ([1]; BDNF 50 ng/ml, 1 hr pre-treatment, Aβ1-42): −62%
